Tests used:
[1] = tested on: sub-genomic HCV NS3-NS5B replicon genotype 1a (Huh-7 cells); assay: Replicon luciferase cell based assay, genotype 1a; conditions: Hepatitis C virus; Huh-7 genotype 1a luciferase replicon, 48 hours; read-out: EC50 GT 1a
Summary of the method: (§1)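 Huh-7 cells stably carrying luciferase-linked NS3-NS5B replicons (1b ET, 1a H77 with P1496L/S2204I, plus C316N/C316Y NS5B mutants) treated with a 10-point 1:3 compound series for 48 h at 37 °C. Inhibition read as Steady-Glo luminescence against compound-free cells after background subtraction. EC50 from curve fit, averaged over two plates.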

[2] = tested on: sub-genomic HCV NS3-NS5B replicon genotype 1b (Huh-7 cells); assay: Replicon luciferase cell based assay, genotype 1b; conditions: Hepatitis C virus; Huh-7 genotype 1b luciferase replicon, 48 hours; read-out: EC50 GT1b
Summary of the method: as §1

[3] = tested on: sub-genomic HCV NS3-NS5B replicon genotype 1b C316N (Huh-7 cells); assay: Replicon luciferase cell based assay, genotype 1b C316N; conditions: Hepatitis C virus, Huh-7, 48 h, read-out: EC50 1b 316N
Summary of the method: as §1

[4] = tested on: sub-genomic HCV NS3-NS5B replicon genotype 1a C316Y (Huh-7 cells); assay: Replicon luciferase cell based assay, genotype 1a C316Y; conditions: Hepatitis C virus, Huh-7, 48 h, read-out: EC50 1a 316Y
Summary of the method: as §1

[5] = In vivo pharmacokinetic study, mouse
Protocol: (§2) In vivo pharmacokinetic studies were conducted in mouse, rat, dog, or cynomolgus monkey to determine clearance, oral exposure and bioavailability (% F). Solution doses of the compounds were administered intravenously through catheters or orally by gavage. Blood samples were collected at the following time points (n=2 or 3/route/species): 0.083 (IV only), 0.167 (IV only), 0.25, 0.5, 1, 2, 4, 6, 8, 12, and 24 h. Non-compartmental pharmacokinetic parameters were determined using Phoenix Winnonlin 6.1 (Pharsight, Mountain View, Calif.). Bioavailability of the oral formulation of each compound were calculated as the ratio of the oral dose normalized AUCinf to the intravenous dose normalized AUCinf. Results are expressed in Table 2.

[6] = In vivo pharmacokinetic study, rat
Protocol: as §2

[7] = In vivo pharmacokinetic study, dog
Protocol: as §2

[8] = In vivo pharmacokinetic study, monkey; set-up: species or system cynomolgus monkey
Protocol: as §2

[9] = Hepatocyte incubations, metabolic stability; format: in vitro ADME; set-up: dose or concentration left out as unconfirmed; conditions: cryopreserved human hepatocytes, 0.25×10^6 cells, up to 120 min, 37 C
Protocol: Hepatocyte incubations were conducted using cryopreserved hepatocytes purchased from CellzDirect (Durham, N.C.). Cryopreserved hepatocytes were removed from liquid nitrogen and thawed according to XenoTech's guidelines listed in “XenoTech Protocol for Thawing Cryopreserved Hepatocytes” using Hepatocyte Isolation Kit K2000 (Dec. 13, 2004). Hepatocytes were diluted to 1 million cells in 1 mL of Williams E media containing 25 mM HEPES buffer and 2 mM Glutamax.
Hepatocyte incubations were carried out in 96-well plates on an Eppendorf shaker at 350 rpm at 37 C. Reaction mixtures consisted of 0.25×10^6 cells and […] test compound (to maintain a 0.05% final DMSO concentration) in a final volume of 0.5 mL. An initial time-point (t0) was collected and subsequent aliquots were collected at 15, 30, 60, 90, and 120 min. Reactions were terminated by transferring […] of the incubation mixture into a 96-well plate containing […] of an organic mixture [acetonitrile and methanol (80:20)] at 4° C. Precipitated protein was removed by centrifugation and the resultant supernatant was transferred to a new 96-well polypropylene plate for LC/MS/MS analysis. Drug-free matrix control and 2 QC standards (phenacetin and propranolol) were included in each experiment and treated in the same manner as test compound.
Metabolic stability expressed as the percentage of parent compound remaining was calculated from the peak area ratio of compound remaining after incubation (tx) compared to the time zero (t0) incubation.
The half-life (t1/2) was calculated using the following equation: […]
Where K is the slope of the ln % remaining vs. time regression. Half-life values were only reported when at least 15% loss of parent compound was observed.

CNC(=O)c1c(-c2ccc(F)cc2)oc2cc(N(c3ccc(B(O)O)c(Cl)c3)S(C)(=O)=O)c(C3CC3)cc12 [Example 1, (2-Chloro-4-(N-(5-cyclopropyl-2-(4-fluorophenyl)-3-(methylcarbamoyl)benzofuran-6-yl)methylsulfonamido)phenyl)boronic acid]
EC50 [1]: 1 to 10 nM
EC50 [2]: 1 to 10 nM
EC50 [3]: 1 to 10 nM
EC50 [4]: 1 to 10 nM
DNAUC ([5]; Mouse): 6688 ng·h/mL/mg/kg
T 1/2 ([5]; Mouse): 5.5 H
clearance ([5]; mouse, blood, intravenous): 0.9 mL/min/kg
Vd ([5]; mouse, blood, intravenous, read-out: Vss): 0.4 L/kg
bioavailability ([5]; mouse, blood, oral): 37%
DNAUC ([6]; Rat): 567 ng·h/mL/mg/kg
T 1/2 ([6]; Rat): 2.9 H
clearance ([6]; rat, blood, intravenous): 7.5 mL/min/kg
Vd ([6]; rat, blood, intravenous, read-out: Vss): 1.3 L/kg
bioavailability ([6]; rat, blood, oral): 23%
DNAUC ([7]; Dog): 6438 ng·h/mL/mg/kg
T 1/2 ([7]; Dog): 8.7 H
clearance ([7]; dog, blood, intravenous): 2.3 mL/min/kg
Vd ([7]; dog, blood, intravenous, read-out: Vss): 1.6 L/kg
bioavailability ([7]; dog, blood, oral): 83%
DNAUC ([8]; Monkey): 2953 ng·h/mL/mg/kg
T 1/2 ([8]; Monkey): 3.7 H
clearance ([8]; cynomolgus monkey, blood, intravenous): 2.2 mL/min/kg
Vd ([8]; cynomolgus monkey, blood, intravenous, read-out: Vss): 0.5 L/kg
bioavailability ([8]; cynomolgus monkey, blood, oral): 51%
half-life [9]: > 6 h

Reference: patent publication US9682999B2, “Benzofuran compounds for the treatment of hepatitis C virus infections” (Glaxo Group Limited, priority 2011, dated 2017)
